The test system of this series is NLuc-UGA PTC. In words: NanoLuc nonsense reporter screen (all-in-one HTC plasmid), TGA/UGA PTC, HEK293 cells. Type of series: cell-based, human. To be noted: for stop codon selectivity (NanoLuc TGA, TAA or TAG reporter): transiently transfected HEK293 cells. From the text: Several different nonsense mutations cause CF, thus underlying roughly 10% of all CF disease. FIG. 7. These cases are concentrated into […] specific genetic lesions: E60X, R75X, G542X, R553X, Q890X, Y1092X, R1158X, R1162X and W1282X. A screen was developed to screen existing human tRNA sequences for modification and tolerance to anti-codon editing. To this end, roughly 144 ACE-tRNAs were candidates to test for those that could be used to promote the repair of the disease causative nonsense codon and the expression of the full-length protein. Specifically, using the scheme described in FIG. 11, tRNA libraries were generated to identify novel tRNA sequences that encode for ACE tRNA with the ability to repair the top CF causative nonsense mutations. Specifically, 10 ng of annealed oligos encoding the ACE-tRNAs were combined with 50 ng of NanoLuc reporter plasmid, 1 μl 10×CutSmart Buffer (NEB), 1 μl T4 ligase (NEB), 10 mM ATP and 1 μl BbsI (NEB) and cycled in a thermocycler as described in FIG. 11. 1 μl of the reaction was transformed into competent E. coli and the transformants were plated on ampicillin agar plates. One transformant was picked per plate was picked, grown in 1 ml of LB under ampicillin selection, miniprepped and sequence verified.
Screening studies were first performed to identify the best ACE-tRNA Candidates from tryptophan and glycine. 125 ng of sequence verified miniprep cDNA of NanoLuc reporter plasmid with ACE-tRNA was transfected into HEK cells using calcium phosphate. HEK cells were plated in 96 well plates at 4×10^4 the day prior. 24 hours after transfection the media was replaced with 20 μl of PBS and 15 μl of NanoGlo reagent (Promega) was added. Plates were read on a SpectraMax i3 (Molecular Devices). Data are of replicates of 3 or greater. FIG. 8.
FIG. 10. An additional modification of the tRNA was made to further enable their function for the purpose of suppression of nonsense codons and the promotion of protein expression. […] To this end, single and double mutations were directly engineered into the t-stem loop of tRNA Trpchr17.trna39—an ACE-tRNA identified with activity for the rescue of tryptophan TGA nonsense codons. Thirty-eight tRNA t-stem variants were thus generated and screened in HEK cells transiently transfected with the nonsense rescue reporter construct shown in FIG. 4. […] This is a generalizable modification, that is, new tRNA sequences identified, by example 1 and 2, can be made better (for their ability to rescue nonsense codons) through further rationale modifications. Such approaches aid in the therapeutic utility of ACE-tRNA directed to tissue types with low abundance target RNA or where tRNA delivery may be limiting.
In order to enable the identification of the nucleotide composition and functional ability to suppress nonsense codons by new types of tRNA, an All-In-One Plasmid With A One Pot Cloning Reaction was invented for High Throughput Cloning FIG. 11. This approach enables the facile investigation of ACE-tRNA activity via luciferase activity in a standard 96 well format. Briefly, synthetic nucleotide sequences encoding for tRNA are ligated into the NanoLuc Reporter plasmid, with an example of the TGA nonsense reporter plasmid variant shown in FIG. 11. […] and TAG (amber) stop codon rescue vectors have been successfully designed and implemented in FIGS. 16-19. The benefits are the approach is that DNA oligos encoding for tRNA libraries can be ligated in the NanoLuc reporter plasmid with the presence of the restriction enzyme and ligase with the reaction pushed to nearly 100% incorporation of tRNA insert (FIG. 11)-thus the ‘one-pot’ designation. The reaction is transformed into E. coli, with the resultant cDNA purified by standard methods. […]

This note sets out measurements from US20230203482A1, “Methods of Rescuing Stop Codons via Genetic Reassignment with ACE-tRNA” (THE WISTAR INSTITUTE OF ANATOMY AND BIOLOGY, priority 2017, published 2023).

Regarding “Trpchr17.trna39: top performing tryptophan ACE-tRNA UGA suppressor, SEQ ID NO: 48”, the Ranking entry (Table 7, Trp TGA) is recorded as “#1”. Also, the “stop codon selectivity (NanoLuc TGA, TAA or TAG reporter)” value (listed as ACE-tRNA^Trp) was “Stop codon specificity is maintained”.

B1: Glychr19.trna2: top performing glycine ACE-tRNA UGA suppressor, SEQ ID NO: 53 (nucleic acid)
chain: GCGTTGGTGGTATAGTGGTTAGCATAGCTGCCTTCAAAGCAGTTGACCCGGGTTCGATTCCCGGCCAACGCA
modifications: chemistry not fully specified
On to B1, for which, for the setting “Table 8, Gly TGA”, the Ranking entry was “#1”. For the same molecule, the “stop codon selectivity (NanoLuc TGA, TAA or TAG reporter)” value (listed as Glychr19.t2) is given as “selectively suppresses the UGA stop codon”.
